Experimental data as given in patent US9339463B2, “Micronized opioid compositions having a specific particle size distribution” (priority 2007, dated 2016).
Where “and” joins values, the source holds several entries; their conditions need not be identical. Equal values may be shown once.

What was measured:
Format in all cases: physicochemical
[1] = Physical stability on storage: particle size (Dv90) by laser diffraction
[2] = Particle size by optical microscopy, number % undersize; details: mean diameter
Method: (§1) As a secondary analytical method, the micronized and the non-micronized oxycodone analyzed by laser diffraction with results shown in Table 1, were analyzed by optical microscopy to evaluate particle size and the results are shown in Table 2. Sample aliquots (˜50 mg for micronized and ˜225 mg for non-micronized) were dispersed in 10 ml of sunflower oil and viewed on a Nikon microscope equipped with a 10× objective. Particle size (mean diameter) was determined using Image Pro® Plus software and expressed as a number % undersize. The particle size values determined by optical microscopy as shown in Table 2 are consistent with the laser diffraction particle size data shown in Table 1.

[3] = Physical stability on storage: microscopy
Method: as §1
(§2) Samples of Example 2 and additional samples comprising micronized and non-micronized oxycodone useful for exemplary dosage forms are tested for their chemical stability and physical stability. Based on a comparison of stability data from micronized and non-micronized samples stored at both 25° C./60% RH and 40 C.°/75% RH, no differences are observed in the impurity profile through three months of study as shown in Tables 4 and 5 for exemplary lots. The impurities analyzed include (HOXY), 14-Hydroxycodeinone; (DHOXYN), 7,8-Dihydro-8,14-Dihydroxycodeinone; (DHOXY), 7,8-Dihydro-14-hydroxycodeine; (OXYE), Oxycodone ethylenolate; (OXYN), 1-Hydroxyoxycodone and Oxycodone N-oxide. Most of the impurities are found to be below the limit of quantitation (LOQ), except for HOXY and DHOXYN which were unchanged at 0.1%. […] The solid state stability of the micronized oxycodone is monitored for particle size, XRPD, DSC, and microscopy as shown in Table 6.

[4] = Physical stability on storage: DSC onset melt
Method: The micronized lots may also be analyzed by Differential Scanning Calorimetry (DSC). DSC is performed on a TA instrument Q100 using a heating ramp from 25-235° C. at a rate of 5° C./min. […] The sharp endotherm observed is consistent with a crystalline material and the absence of other thermal events proves that there were no polymorph transformations during melting.
as §2

[5] = Chemical stability on storage: assay and impurities
Method: as §2

[6] = Particle size distribution by laser diffraction (Malvern Mastersizer 2000), oxycodone base
[7] = Table 1 analysis, lot 2 in duplicate
[8] = additional laser diffraction analysis, Table 3

## COc1ccc2c3c1O[C@H]1C(=O)CC[C@@]4(O)[C@@H](C2)N(C)CC[C@]314 [Lot 2, oxycodone]
[1]; 25° C./60% RH, 3 months
  Particle size (Dv90): 10 μ
[1]; 40° C./75% RH, 3 months
  Particle size (Dv90): 10 μ
[1]; Time 0
  Particle size (Dv90): 4 μ
[2]
  % ≦ 1μ: 25.3%
  % ≦ 5μ: 92.2%
  % ≦ 10μ: 99.5%
[3]; 25° C./60% RH, 3 mo
  Microscopy, ≦10 μ: 99.5%
[3]; 40° C./75% RH, 3 mo
  Microscopy, ≦10 μ: 98.3%
[3]; Time 0
  Microscopy, ≦10 μ: 99.5%
[4]; 25° C./60% RH, 3 mo
  DSC Onset Melt: 221.8 °C
[4]; 40° C./75% RH, 3 mo
  DSC Onset Melt: 221.9 °C
[4]; Time 0
  DSC Onset Melt: 221.8 °C
[5]; 5° C./60% RH, 1 mo (Table 4)
  1-HydroxyOXY: <LOQ
[5]; 5° C./60% RH, 3 mo (Table 4)
  1-HydroxyOXY: <LOQ
[5]; 25° C./60% RH, 1 mo
  Assay: 99.8%
  DHOXY (7,8-Dihydro-14-hydroxycodeine): <LOQ
  DHOXYN (7,8-Dihydro-8,14-Dihydroxycodeinone): 0.10%
  HOXY (14-Hydroxycodeinone): 0.08%
  OXYE (Oxycodone ethylenolate): <LOQ
  OXYN: <LOQ
  Other (impurities; Table 5: >0.05%): <LOQ
  Total impurities: 0.18%
[5]; 25° C./60% RH, 3 mo
  Assay: 99.8%
  DHOXY (7,8-Dihydro-14-hydroxycodeine): <LOQ
  DHOXYN (7,8-Dihydro-8,14-Dihydroxycodeinone): 0.10%
  HOXY (14-Hydroxycodeinone): 0.08%
  OXYE (Oxycodone ethylenolate): <LOQ
  OXYN: <LOQ
  Other (impurities; Table 5: >0.05%): <LOQ
  Total impurities: 0.18%
[5]; 40° C./75% RH, 1 mo
  1-HydroxyOXY: <LOQ
  Assay: 99.6%
  DHOXY (7,8-Dihydro-14-hydroxycodeine): <LOQ
  DHOXYN (7,8-Dihydro-8,14-Dihydroxycodeinone): 0.10%
  HOXY (14-Hydroxycodeinone): 0.08%
  OXYE (Oxycodone ethylenolate): <LOQ
  OXYN: <LOQ
  Other (impurities; Table 5: >0.05%): <LOQ
  Total impurities: 0.18%
[5]; 40° C./75% RH, 3 mo
  1-HydroxyOXY: <LOQ
  Assay: 99.2%
  DHOXY (7,8-Dihydro-14-hydroxycodeine): <LOQ
  DHOXYN (7,8-Dihydro-8,14-Dihydroxycodeinone): 0.10%
  HOXY (14-Hydroxycodeinone): 0.08%
  OXYE (Oxycodone ethylenolate): <LOQ
  OXYN: <LOQ
  Other (impurities; Table 5: >0.05%): <LOQ
  Total impurities: 0.18%
[5]; Time 0
  1-HydroxyOXY: <LOQ
  Assay: 100.7%
  DHOXY (7,8-Dihydro-14-hydroxycodeine): <LOQ
  DHOXYN (7,8-Dihydro-8,14-Dihydroxycodeinone): 0.10%
  HOXY (14-Hydroxycodeinone): 0.08%
  OXYE (Oxycodone ethylenolate): <LOQ
  OXYN: <LOQ
  Other (impurities; Table 5: >0.05%): <LOQ
  Total impurities: 0.18%
[6]; [7]
  Particle size (Dv10): 0.5, 0.5 μ
  Particle size (Dv50): 1.5 μ and 2.2 μ
  Particle size (Dv90): 3.1 μ and 5.1 μ
[6]; [8]
  Particle size (Dv10): 0.6 μ
  Particle size (Dv50): 2.1 μ
  Particle size (Dv90): 5.8 μ

## COc1ccc2c3c1O[C@H]1C(=O)CC[C@@]4(O)[C@@H](C2)N(C)CC[C@]314 [Lot 3, oxycodone]
[1]; 25° C./60% RH, 1 month
  Particle size (Dv90): 9 μ
[1]; 25° C./60% RH, 3 months
  Particle size (Dv90): 10 μ
[1]; 25° C./60% RH, 6 months
  Particle size (Dv90): 10 μ
[1]; 25° C./60% RH, 9 months
  Particle size (Dv90): 8 μ
[1]; 25° C./60% RH, 12 months
  Particle size (Dv90): 8 μ
[1]; 40° C./75% RH, 1 month
  Particle size (Dv90): 9 μ
[1]; 40° C./75% RH, 3 months
  Particle size (Dv90): 11 μ
[1]; 40° C./75% RH, 6 months
  Particle size (Dv90): 10 μ
[1]; Time 0
  Particle size (Dv90): 6 μ
[3]; 25° C./60% RH, 3 mo
  Microscopy, ≦10 μ: 98.3%
[3]; 40° C./75% RH, 3 mo
  Microscopy, ≦10 μ: 94.5%
[4]; 25° C./60% RH, 3 mo
  DSC Onset Melt: 221.9 °C
[4]; 40° C./75% RH, 3 mo
  DSC Onset Melt: 221.9 °C
[5]; 5° C./60% RH, 1 mo (Table 4)
  1-HydroxyOXY: <LOQ
[5]; 5° C./60% RH, 3 mo (Table 4)
  1-HydroxyOXY: <LOQ
[5]; 25° C./60% RH, 1 mo
  Assay: 98.5%
  DHOXY (7,8-Dihydro-14-hydroxycodeine): <LOQ
  DHOXYN (7,8-Dihydro-8,14-Dihydroxycodeinone): 0.10%
  HOXY (14-Hydroxycodeinone): 0.08%
  OXYE (Oxycodone ethylenolate): <LOQ
  OXYN: <LOQ
  Other (impurities; Table 5: >0.05%): <LOQ
  Total impurities: 0.18%
[5]; 25° C./60% RH, 3 mo
  Assay: 98.5%
  DHOXY (7,8-Dihydro-14-hydroxycodeine): <LOQ
  DHOXYN (7,8-Dihydro-8,14-Dihydroxycodeinone): 0.10%
  HOXY (14-Hydroxycodeinone): 0.08%
  OXYE (Oxycodone ethylenolate): <LOQ
  OXYN: <LOQ
  Other (impurities; Table 5: >0.05%): <LOQ
  Total impurities: 0.18%
[5]; 40° C./75% RH, 1 mo
  1-HydroxyOXY: <LOQ
  Assay: 100.1%
  DHOXY (7,8-Dihydro-14-hydroxycodeine): <LOQ
  DHOXYN (7,8-Dihydro-8,14-Dihydroxycodeinone): 0.10%
  HOXY (14-Hydroxycodeinone): 0.08%
  OXYE (Oxycodone ethylenolate): <LOQ
  OXYN: <LOQ
  Other (impurities; Table 5: >0.05%): <LOQ
  Total impurities: 0.18%
[5]; 40° C./75% RH, 3 mo
  1-HydroxyOXY: <LOQ
  Assay: 99.5%
  DHOXY (7,8-Dihydro-14-hydroxycodeine): <LOQ
  DHOXYN (7,8-Dihydro-8,14-Dihydroxycodeinone): 0.10%
  HOXY (14-Hydroxycodeinone): 0.08%
  OXYE (Oxycodone ethylenolate): <LOQ
  OXYN: <LOQ
  Other (impurities; Table 5: >0.05%): <LOQ
  Total impurities: 0.18%
[5]; Time 0
  1-HydroxyOXY: <LOQ
  Assay: 100.4%
  DHOXY (7,8-Dihydro-14-hydroxycodeine): <LOQ
  DHOXYN (7,8-Dihydro-8,14-Dihydroxycodeinone): 0.11%
  HOXY (14-Hydroxycodeinone): 0.07%
  OXYE (Oxycodone ethylenolate): <LOQ
  OXYN: <LOQ
  Other (impurities; Table 5: >0.05%): <LOQ
  Total impurities: 0.18%
